Experimental data: ChEMBL document CHEMBL4334513, “Discovery of a Potent, Selective, and Orally Available MTHFD2 Inhibitor (DS18561882) with in Vivo Antitumor Activity” (J Med Chem, 2019)
In brackets after ≈: the same amount, converted by molar mass.

What was measured:
[1] = biological target: T1, Bifunctional methylenetetrahydrofolate dehydrogenase/cyclohydrolase, mitochondrial (Homo sapiens, UniProt P13995); assay: Inhibition of recombinant MTHFD2 (unknown origin) using THF as substrate incubated for 30 mins in presence of NAD
T1 sequence (P13995 whole entry): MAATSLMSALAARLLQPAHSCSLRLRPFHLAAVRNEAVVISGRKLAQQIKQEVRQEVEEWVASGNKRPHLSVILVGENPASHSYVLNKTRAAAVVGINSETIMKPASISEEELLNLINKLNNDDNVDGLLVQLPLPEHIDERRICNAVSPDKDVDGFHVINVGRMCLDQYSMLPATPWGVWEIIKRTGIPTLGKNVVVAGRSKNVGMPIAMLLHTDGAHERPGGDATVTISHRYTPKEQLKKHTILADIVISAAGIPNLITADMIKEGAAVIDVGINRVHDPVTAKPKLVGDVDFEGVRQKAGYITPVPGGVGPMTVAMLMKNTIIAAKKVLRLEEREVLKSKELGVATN

[2] = Dissociation constant, acidic pKa of compound; format: physicochemical
[3] = Effective permeability of compound at pH 7.4 by PAMPA; format: ADME; conditions: read-out: Peff
[4] = Lipophilicity, logP of compound; format: physicochemical; conditions: octanol/water
[5] = Antiproliferative activity against human MDA-MB-231-luc-D3H2LN cells assessed as inhibition of growth after 3 days by CellTiter Glo assay; format: functional; conditions: 72 h
[6] = biological target: T2, C-1-tetrahydrofolate synthase, cytoplasmic (Homo sapiens, UniProt P11586)
T2 sequence (P11586 whole entry): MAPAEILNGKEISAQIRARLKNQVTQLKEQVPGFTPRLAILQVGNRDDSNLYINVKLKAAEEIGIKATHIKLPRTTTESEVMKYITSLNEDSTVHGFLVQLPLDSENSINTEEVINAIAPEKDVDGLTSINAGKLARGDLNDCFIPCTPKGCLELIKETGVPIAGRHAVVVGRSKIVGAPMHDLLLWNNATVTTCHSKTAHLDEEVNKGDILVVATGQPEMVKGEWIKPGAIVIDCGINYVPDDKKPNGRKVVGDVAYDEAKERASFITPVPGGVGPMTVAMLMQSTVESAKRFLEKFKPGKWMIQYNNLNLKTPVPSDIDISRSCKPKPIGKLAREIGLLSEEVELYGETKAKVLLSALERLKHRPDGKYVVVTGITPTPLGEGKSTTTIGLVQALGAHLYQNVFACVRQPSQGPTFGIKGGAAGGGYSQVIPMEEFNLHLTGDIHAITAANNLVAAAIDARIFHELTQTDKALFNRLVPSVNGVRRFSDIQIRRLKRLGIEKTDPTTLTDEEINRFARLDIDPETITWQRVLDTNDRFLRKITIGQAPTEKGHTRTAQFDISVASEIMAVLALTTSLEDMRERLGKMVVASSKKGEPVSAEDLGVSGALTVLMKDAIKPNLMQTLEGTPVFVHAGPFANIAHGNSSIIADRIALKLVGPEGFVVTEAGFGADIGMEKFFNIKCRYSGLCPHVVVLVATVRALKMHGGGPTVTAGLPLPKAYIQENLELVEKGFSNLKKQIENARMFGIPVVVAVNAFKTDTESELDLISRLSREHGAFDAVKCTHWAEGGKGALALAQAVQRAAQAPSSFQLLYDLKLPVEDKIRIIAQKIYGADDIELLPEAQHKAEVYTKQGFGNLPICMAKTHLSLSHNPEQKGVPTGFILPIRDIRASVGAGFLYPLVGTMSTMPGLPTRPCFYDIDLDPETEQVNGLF
Description: Inhibition of recombinant MTHFD1 (unknown origin) using THF as substrate incubated for 30 mins in presence of NAD

[7] = Lipophilicity, logD of compound; format: physicochemical; conditions: octanol/water
[8] = AUC in BALBc mouse at 10 mg/kg, po measured for 24 hrs by LC-MS/MS analysis; format: ADME, organism-based; conditions: in vivo
[9] = AUC in BALBc mouse at 100 mg/kg, po measured for 24 hrs by LC-MS/MS analysis; format: ADME, organism-based; conditions: in vivo
[10] = AUC in BALBc mouse at 30 mg/kg, po measured for 24 hrs by LC-MS/MS analysis; format: ADME, organism-based; conditions: in vivo
[11] = AUC in BALBc mouse at 300 mg/kg, po measured for 24 hrs by LC-MS/MS analysis; format: ADME, organism-based; conditions: in vivo
[12] = Cmax in BALBc mouse at 10 mg/kg, po measured for 24 hrs by LC-MS/MS analysis; format: ADME, organism-based; parameters: dose 10 mg/kg, route oral; conditions: in vivo
[13] = Cmax in BALBc mouse at 30 mg/kg, po measured for 24 hrs by LC-MS/MS analysis; format: ADME, organism-based; parameters: dose 30 mg/kg, route oral; conditions: in vivo
[14] = Cmax in BALBc mouse at 100 mg/kg, po measured for 24 hrs by LC-MS/MS analysis; format: ADME, organism-based; parameters: dose 100 mg/kg, route oral; conditions: in vivo
[15] = Cmax in BALBc mouse at 300 mg/kg, po measured for 24 hrs by LC-MS/MS analysis; format: ADME, organism-based; parameters: dose 300 mg/kg, route oral; conditions: in vivo
[16] = Half life in BALBc mouse at 10 mg/kg, po measured for 24 hrs by LC-MS/MS analysis; format: ADME, organism-based; conditions: in vivo
[17] = Half life in BALBc mouse at 30 mg/kg, po measured for 24 hrs by LC-MS/MS analysis; format: ADME, organism-based; conditions: in vivo
[18] = Half life in BALBc mouse at 100 mg/kg, po measured for 24 hrs by LC-MS/MS analysis; format: ADME, organism-based; conditions: in vivo
[19] = Half life in BALBc mouse at 300 mg/kg, po measured for 24 hrs by LC-MS/MS analysis; format: ADME, organism-based; conditions: in vivo
[20] = Effective permeability of compound at pH 5 by PAMPA; format: ADME; conditions: read-out: Peff
[21] = Solubility of compound in pH 1.2; format: physicochemical; conditions: buffer
[22] = Solubility of compound in pH 6.8; format: physicochemical; conditions: buffer
[23] = Metabolic stability in mouse liver microsomes assessed as remaining parent compound at 1 uM after 0.5 hrs; format: ADME, Microsome; conditions: read-out: Stability
[24] = Fraction unbound in mouse plasma; format: ADME, cell-free
[25] = Free plasma concentration in BALBc mouse at 10 to 300 mg/kg, po measured after 24 hrs by LC-MS/MS analysis; format: ADME, organism-based; conditions: in vivo
[26] = Antitumor activity against human MDA-MB-231-Luc cells xenografted in BALB/cAJcl nu/nu mouse assessed as tumour growth inhibition at 300 mg/kg, po administered bid for 11 days and measured every 2 to 3 days relative to control; format: functional; conditions: read-out: TGI
[27] = Toxicity in BALB/cAJcl nu/nu mouse xenografted with human MDA-MB-231-Luc cells assessed as body weight loss at 300 mg/kg, po administered bid for 11 days and measured every 1 to 2 days; format: organism-based; conditions: in vivo

Question: With `Cc1c(N2CCN(C)CC2)ccc2c3c(c(=O)oc12)CN(C(=O)c1ccc(NS(C)(=O)=O)c(Br)c1)CC3` as the compound, how does the IC50 [1] read?
Answer: Its IC50 is 33 nM.

Question: What about the pKa [2] of the same compound?
Answer: Its pKa is 6.8.

Question: And the Papp [3]?
Answer: The Papp was greater than 50 ×10⁻⁶ cm/s.

Question: And the logP [4]?
Answer: Its logP is 1.9.

Question: And the GI50 [5]?
Answer: Its GI50 is 1600 nM.

Question: What about the IC50 [6] of the same compound?
Answer: The IC50 was 4200 nM.

Question: What does the source list for `Cc1c(N2CCN(C)CC2)ccc2c3c(c(=O)oc12)CN(C(=O)c1ccc(NS(C)(=O)=O)cc1)CC3`?
Answer: IC50 [1]: 200 nM; pKa [2]: 8.2; Papp [3]: 5.4 ×10⁻⁶ cm/s; logP [4]: 1.6; GI50 [5]: 6300 nM; IC50 [6]: > 30000 nM

Question: With `Cc1c(N2C[C@@H](C)N(C)[C@@H](C)C2)ccc2c3c(c(=O)oc12)CN(C(=O)c1ccc(NS(C)(=O)=O)c(Cl)c1)CC3` as the compound, how does the logP [4] read?
Answer: Its logP is 2.2.

Question: And the GI50 [5]?
Answer: Its GI50 is 760 nM.

Question: What about the logD [7] of the same compound?
Answer: Its logD is 1.7.

Question: Which IC50 [1] does the source give for `CN(C)CCCOc1ccc2c3c(c(=O)oc2c1)CN(C(=O)c1ccc(C(=O)O)cc1)CC3` here?
Answer: Its IC50 is 360 nM.

Question: And the IC50 [6]?
Answer: The IC50 was 18700 nM.

Question: Which results are given for `CN(C)CCOc1ccc2c3c(c(=O)oc2c1)CN(C(=O)c1ccc(C(=O)O)cc1)CC3`?
Answer: IC50 [1]: 340 nM; IC50 [6]: > 30000 nM

Question: Which IC50 [1] does the source give for `Cc1c(OCCN(C)C)ccc2c3c(c(=O)oc12)CN(C(=O)c1ccc(C(=O)O)cc1)CC3` here?
Answer: Its IC50 is 49 nM.

Question: What about the IC50 [6] of the same compound?
Answer: The IC50 was 5000 nM.

Question: With `CN1CCN(c2ccc3c4c(c(=O)oc3c2)CN(C(=O)c2ccc(C(=O)O)cc2)CC4)CC1` as the compound, how does the IC50 [1] read?
Answer: Its IC50 is 320 nM.

Question: And the IC50 [6]?
Answer: Its IC50 is greater than 30000 nM.

Question: For `Cc1c(N2CCN(C)CC2)ccc2c3c(c(=O)oc12)CN(C(=O)c1ccc(NS(C)(=O)=O)c(Cl)c1)CC3`, which pKa [2] is on record?
Answer: Its pKa is 6.8.

Question: And the Papp [3]?
Answer: The Papp was 31.1 ×10⁻⁶ cm/s.

Question: What about the logP [4] of the same compound?
Answer: The logP was 1.8.

Question: What about the GI50 [5] of the same compound?
Answer: Its GI50 is 940 nM.

Question: And the logD [7]?
Answer: Its logD is 1.3.

Question: And the AUC at 24 h [8]?
Answer: The AUC at 24 h was 25.3 µg·h/mL.

Question: What about the AUC at 24 h [9] of the same compound?
Answer: Its AUC at 24 h is 306 µg·h/mL.

Question: What about the AUC at 24 h [10] of the same compound?
Answer: The AUC at 24 h was 79.2 µg·h/mL.

Question: What about the AUC at 24 h [11] of the same compound?
Answer: Its AUC at 24 h is 929 µg·h/mL.

Question: What about the Cmax [12] of the same compound?
Answer: The Cmax was 3660 ng/mL.

Question: And the Cmax [13]?
Answer: Its Cmax is 12700 ng/mL.

Question: And the Cmax [14]?
Answer: Its Cmax is 37900 ng/mL.

Question: What about the Cmax [15] of the same compound?
Answer: The Cmax was 82600 ng/mL.

Question: And the half-life [16]?
Answer: The half-life was 2.73 h.

Question: What about the half-life [17] of the same compound?
Answer: Its half-life is 3.35 h.

Question: What about the half-life [18] of the same compound?
Answer: The half-life was 3.51 h.

Question: And the half-life [19]?
Answer: The half-life was 2.32 h.

Question: And the Papp [20]?
Answer: The Papp was 7.2 ×10⁻⁶ cm/s.

Question: And the solubility [21]?
Answer: Its solubility is 240 µg/mL (≈ 440 µM).

Question: What about the solubility [22] of the same compound?
Answer: Its solubility is 120 µg/mL (≈ 220 µM).

Question: And the remaining at 0.5 h, 1 µM [23]?
Answer: Its remaining at 0.5 h, 1 µM is 91%.

Question: What about the fraction unbound [24] of the same compound?
Answer: The fraction unbound was 0.153.

Question: And the “Cp(f)” value [25]?
Answer: The value was 0 ng/mL.

Question: What about the inhibition in vivo at 300 mg/kg [26] of the same compound?
Answer: Its inhibition in vivo at 300 mg/kg is 43%.

Question: What about the Activity [27] of the same compound?
Answer: Its Activity is “Non-Toxic”.

Question: For `Cc1c(N2CCN(C)CC2)ccc2c3c(c(=O)oc12)CN(C(=O)c1cc(Cl)cc(NS(C)(=O)=O)c1)CC3`, which IC50 [1] is on record?
Answer: Its IC50 is 89 nM.

Question: And the Papp [3]?
Answer: The Papp was 6.6 ×10⁻⁶ cm/s.

Question: And the logP [4]?
Answer: The logP was 1.8.

Question: And the GI50 [5]?
Answer: The GI50 was 5500 nM.

Question: And the IC50 [6]?
Answer: The IC50 was greater than 30000 nM.

Question: With `COc1cc(C(=O)N2CCc3c(c(=O)oc4c(C)c(N5CCN(C)CC5)ccc34)C2)ccc1NS(C)(=O)=O` as the compound, how does the IC50 [1] read?
Answer: The IC50 was 400 nM.

Question: What about the pKa [2] of the same compound?
Answer: The pKa was 8.4.

Question: And the Papp [3]?
Answer: Its Papp is 44.2 ×10⁻⁶ cm/s.

Question: What about the logP [4] of the same compound?
Answer: Its logP is 1.6.

Question: What about the GI50 [5] of the same compound?
Answer: Its GI50 is 10000 nM.

Question: And the IC50 [6]?
Answer: Its IC50 is greater than 30000 nM.

Question: With `Cc1c(N2CCN(C)CC2)ccc2c3c(c(=O)oc12)CN(C(=O)c1ccc2c(c1)CS(=O)(=O)N2)CC3.O=C(O)C(F)(F)F` as the compound, how does the IC50 [1] read?
Answer: The IC50 was 18 nM.

Question: And the pKa [2]?
Answer: Its pKa is 5.7.

Question: What about the Papp [3] of the same compound?
Answer: The Papp was less than 0.1 ×10⁻⁶ cm/s.

Question: And the logP [4]?
Answer: The logP was 1.6.

Question: What about the GI50 [5] of the same compound?
Answer: Its GI50 is 19000 nM.

Question: What about the IC50 [6] of the same compound?
Answer: The IC50 was 5200 nM.
